Test results reported in article PMC9331716, “Nucleoside Transport and Nucleobase Uptake Null Mutants in Leishmania mexicana for the Routine Expression and Characterization of Purine and Pyrimidine Transporters” (International Journal of Molecular Sciences, 2022).
Values joined by “and” are separate entries in the source; they are usually repeats but may differ in a detail not shown here. Identical values can stand only once. Like-named read-outs stand apart in the source and are kept apart here.

Legend:
TcrNB2 [1] = molecular target: T1, TcrNB2 (Trypanosoma cruzi, UniProt Q4DHG0); assay: Transport assay, TcrNB2 expressed in LmexNT3-KO; type: cell-based
T1 sequence (Q4DHG0 1-440): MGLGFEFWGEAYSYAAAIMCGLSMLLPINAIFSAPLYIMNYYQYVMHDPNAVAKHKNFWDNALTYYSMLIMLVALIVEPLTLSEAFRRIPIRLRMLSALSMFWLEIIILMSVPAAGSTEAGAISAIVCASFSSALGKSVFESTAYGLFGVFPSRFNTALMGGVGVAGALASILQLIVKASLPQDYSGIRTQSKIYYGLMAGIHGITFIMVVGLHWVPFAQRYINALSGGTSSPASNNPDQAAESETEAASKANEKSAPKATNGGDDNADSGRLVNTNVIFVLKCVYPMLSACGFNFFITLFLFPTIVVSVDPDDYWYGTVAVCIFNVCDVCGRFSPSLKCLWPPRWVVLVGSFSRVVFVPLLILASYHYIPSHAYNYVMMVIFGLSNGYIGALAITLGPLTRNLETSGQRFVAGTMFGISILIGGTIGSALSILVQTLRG
Description: (§1) Transport assays were performed exactly as described previously. Briefly, 10^7 cells in 100 μL of assay buffer (AB) were mixed with an equal volume of radiolabel at 2× concentration for a preset time. The incubation was terminated by the addition of 700 μL of “Stop solution”, being ice-cold 1 mM solution of unlabelled permeant, followed by immediate centrifugation through an oil layer in a microfuge at 13,000 rpm. This causes the cell pellet to reside under the oil layer and isolated from residual radiolabel in the assay buffer. The tubes were flash-frozen in liquid nitrogen and the bottom tip, containing the cell pellet, cut off and collected in a scintillation tube. Cells were solubilized by gentle shaking after addition of a 2% SDS solution, before the addition of scintillation fluid (Scintilogic U, Lablogic, Sheffield, UK); the tubes were left to stand in the dark overnight before counting in a 300SL Hidex Scintillation Counter (Lablogic). Linear and nonlinear regression analyses were carried out using GraphPad Prism versions 8.0 and higher. […] However, all parameters, including Km, Vmax, Ki, given are the average of at least three separate, independent determinations; errors given are standard errors, unless otherwise specified.

L. mexicana cas9 cells [2] = assay: Radiolabel transport assay in cas9 cells; type: cell-based, Leishmania mexicana; details: cas9 cells
Description: as §1

[3] = test system: L. mexicana NT3-KO promastigotes; assay: Radiolabel transport assay in NT3-KO cells; type: cell-based, Leishmania mexicana; details: for rate of uptake: NT3-KO cells; for upregulation of uptake rate in NT3-KO relative to cas9: adenosine and inosine at 100 nM, separate experiments listed singly
Description: as §1

L. mexicana cas9 cells [4] = assay: Growth curve of cas9 cells with selection agents; type: cell-based, Leishmania mexicana; details: 5 μM tubercidin, 5 μg/mL blasticidin, 20 µg/mL puromycin, 1 µM formycin B
Description: The growth rates of the L. mexicana promastigotes were determined in the standard HOMEM medium supplemented with 10% FBS, in 12-well plates, in triplicate. After every 24 h, cells were counted in a sample of the culture, using either a Neubauer hemocytometer chamber (Hawksley, Birmingham, UK) or by a coulter particle counter and size analyzer (Beckman, Brea, CA, USA) to count the cells in triplicate. An average of the triplicate readings was taken and plotted using GraphPad Prism 8 software to obtain the growth curves.

TvagENT3 [5] = molecular target: T2, TvagENT3 (Trichomonas vaginalis, UniProt A2E5Q3); assay: cell-based
Description: as §1

[6] = test system: L. mexicana SUPKO (ΔNT1.1/1.2/2) cells; assay: Radiolabel transport assay in SUPKO cells; type: cell-based, Leishmania mexicana; details: for rate of uptake: SUPKO cells; for uptake reduced in SUPKO compared to cas9: 100 nM (0.1 µM) radiolabel
Description: as §1

L. mexicana NT2-KO cells = assay: Radiolabel transport assay in NT2-KO cells; type: cell-based, Leishmania mexicana; details: for inhibition of residual [^3H]-guanosine uptake in NT2-KO: 250 µM inhibitor, 100 nM [^3H]-guanosine
Description: as §1

TcrNB2 [7] = molecular target: T1, TcrNB2; assay: Transport assay, TcrNB2 expressed in NT1-KO; type: cell-based; details: 50 nM [^3H]-adenosine, 100 nM [^3H]-hypoxanthine, 100 nM [^3H]-uracil; data not shown
Description: as §1

TvagENT3 [8] = molecular target: T2, TvagENT3; details: TvagENT3 expressed in T. brucei; cited from earlier work
[9] = test system: L. mexicana NT1-KO promastigotes; assay: Resazurin (Alamar blue) drug sensitivity assay, NT1-KO line; type: cell-based, Leishmania mexicana
Description: The assay is based on the reduction of the dye resazurin (Alamar blue) by live but not dead cells and was performed with various strains of Leishmania mexicana promastigotes, exactly as described. Briefly, doubling dilutions starting at 100 µM were set up over 2 rows of a 96-well plate and 2 × 10^5 cells were added to each well, followed by incubation at 25 °C. After 72 h, 20 µL of 125 µg/mL resazurin solution was added and the plates incubated for a further 24 h. Fluorescence was determined in a FLUOstar OPTIMA plate reader (BMG Labtech, Ortenberg, Germany), reading the fluorescence intensity in arbitrary units (A.U.) at 544 nm wavelength for excitation and 620 nm wavelength for emission. The EC50 values and fluorescence data were determined and plotted to a sigmoid curve with variable slope, using the GraphPad Prism 8 software package. All EC50 values were determined on at least three independent occasions and are presented as average ± SEM.

LmexNT1.2 = assay: Transport assay, LmexNT1.2 expressed in SUPKO; type: cell-based, Leishmania mexicana
Description: as §1

LmexNT1.1 = assay: Transport assay, LmexNT1.1 expressed in SUPKO; type: cell-based, Leishmania mexicana; details: SUPKO expressing LmexNT1.1, 50 nM radiolabel
Description: as §1

L. major U1 transporter = molecular target: L. major U1 transporter; set-up: method as in PMID 15796010; details: unit printed only with the uridine value; cited from earlier work
[10] = substrate: Nc1ncnc2nc[nH]c12; assay: Transport assay, TcrNB2 expressed in LmexNT3-KO; type: cell-based, Trypanosoma cruzi
Description: as §1

[11] = 100 nM radiolabel, listed as [^3H]-guanosine

T2 sequence (A2E5Q3 entry or part of it): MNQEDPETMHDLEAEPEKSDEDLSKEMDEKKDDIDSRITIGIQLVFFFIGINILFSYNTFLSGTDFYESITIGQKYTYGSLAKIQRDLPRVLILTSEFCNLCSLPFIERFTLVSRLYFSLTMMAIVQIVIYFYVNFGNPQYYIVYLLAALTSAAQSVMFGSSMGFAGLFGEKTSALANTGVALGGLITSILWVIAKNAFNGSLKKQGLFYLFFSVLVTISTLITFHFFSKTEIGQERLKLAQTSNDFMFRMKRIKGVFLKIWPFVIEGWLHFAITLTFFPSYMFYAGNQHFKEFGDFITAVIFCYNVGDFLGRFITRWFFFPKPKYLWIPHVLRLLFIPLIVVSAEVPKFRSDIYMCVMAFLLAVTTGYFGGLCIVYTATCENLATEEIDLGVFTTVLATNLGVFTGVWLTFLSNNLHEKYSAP

Question: Which rate of uptake (TcrNB2 [1]; NT3-KO expressing TcrNB2, 100 nM radiolabel) does the source give for `Nc1ncnc2[nH]cnc12` [adenine] here?
Answer: 0.00036 ± 0.00001 pmol(10^7 cells)^−1s^−1

Question: And the Vmax (TcrNB2 [1]; TcrNB2 in NT3-KO, n = 3)?
Answer: 0.26 ± 0.04 pmol(10^7 cells)^−1s^−1

Question: What about the rate of uptake (L. mexicana cas9 cells [2]; 100 nM radiolabel) of the same molecule?
Answer: 0.0213 ± 0.0009 pmol(10^7 cells)^−1s^−1

Question: And the “rate of transport in NT3-KO as % of that in cas9” value ([3]; 100 nM radiolabel)?
Answer: < 1%

Question: What about the “uptake in NT3-KO lower than in cas9” value ([3]; 100 nM radiolabel, over 15 s) of the same molecule?
Answer: > 100 fold

Question: What about the rate of uptake ([3]; 100 nM radiolabel) of the same molecule?
Answer: 0.000207 ± 0.000094 pmol(10^7 cells)^−1s^−1

Question: Which “sensitivity of cas9 cells in growth curve” value (from here on “sensitivity of cas9 cells”) (L. mexicana cas9 cells [4]) does the source give for `CN(CC[C@H](N)CC(=O)N[C@H]1C=C[C@H](n2ccc(N)nc2=O)O[C@@H]1C(=O)O)C(=N)N` [blasticidin] here?
Answer: confirmed

Question: With `Nc1ccn([C@@H]2O[C@H](CO)[C@@H](O)[C@H]2O)c(=O)n1` [cytidine] as the molecule, how does the “upregulation of uptake rate in NT3-KO relative to cas9” value ([3]; listed as [^3H]-cytidine) read?
Answer: 3.0 fold and 3.7 fold

Question: What about the rate of uptake (TvagENT3 [5]; SUPKO expressing TvagENT3, 500 nM radiolabel) of the same molecule?
Answer: 1.8 × 10^−4 ± 1.3 × 10^−5 pmol(10^7 cells)^−1s^−1

Question: What about the rate of uptake ([6]; 500 nM radiolabel) of the same molecule?
Answer: 1.5 × 10^−5 ± 9 × 10^−6 pmol(10^7 cells)^−1s^−1

Question: With `Nc1nc2c(ncn2[C@@H]2O[C@H](CO)[C@@H](O)[C@H]2O)c(=O)[nH]1` [guanosine] as the molecule, how does the rate of uptake (L. mexicana cas9 cells [2]; [11]) read?
Answer: 0.010 ± 0.0006 pmol(10^7 cells)^−1s^−1 and 0.0058 ± 0.0003 pmol(10^7 cells)^−1s^−1

Question: What about the “upregulation of uptake rate in NT3-KO relative to cas9” value [3] of the same molecule?
Answer: 1.7 fold and 2.1 fold

Question: And the “uptake reduced in SUPKO compared to cas9” value [6]?
Answer: 95.5%

Question: What about the rate of uptake [6, 11] of the same molecule?
Answer: 0.00046 ± 0.00011 pmol(10^7 cells)^−1s^−1

Question: What about the “rate of uptake lower in NT2-KO than in cas9” value (L. mexicana NT2-KO cells; 100 nM radiolabel) of the same molecule?
Answer: 84.5%

Question: And the “inhibition of residual [^3H]-guanosine uptake in NT2-KO” value (L. mexicana NT2-KO cells)?
Answer: completely inhibited

Question: And the rate of uptake (L. mexicana NT2-KO cells; NT2-KO cells, 100 nM radiolabel)?
Answer: 0.0009 ± 0.00014 pmol(10^7 cells)^−1s^−1

Question: For `O=c1[nH]cnc2nc[nH]c12` [hypoxanthine], which inhibition at 1000 µM (TcrNB2 [1]; 1 mM inhibitor, TcrNB2 in NT3-KO, read-out: inhibition of adenine uptake) is on record?
Answer: 31.1 ± 4.3%

Question: And the “uptake detected in NT3-KO cells” value ([3]; 100 nM radiolabel, p = 0.72)?
Answer: no significant hypoxanthine uptake was detected

Question: What about the rate of uptake ([3]; 100 nM radiolabel) of the same molecule?
Answer: 0.00019 ± 0.00045 pmol(10^7 cells)^−1s^−1

Question: And the rate of uptake ([6]; 100 nM radiolabel)?
Answer: 0.045 ± 0.004 pmol(10^7 cells)^−1s^−1

Question: What about the “effect of TcrNB2 expression on uptake in NT1-KO cells” value (TcrNB2 [7]) of the same molecule?
Answer: did not increase

Question: What about the “inhibition of residual [^3H]-guanosine uptake in NT2-KO” value (L. mexicana NT2-KO cells) of the same molecule?
Answer: completely inhibited

Question: Which rate of uptake (L. mexicana cas9 cells [2]; 100 nM radiolabel) does the source give for `O=c1[nH]cnc2c1ncn2[C@@H]1O[C@H](CO)[C@@H](O)[C@H]1O` [inosine] here?
Answer: 0.016 ± 0.002 pmol(10^7 cells)^−1s^−1

Question: And the rate of uptake ([3]; 100 nM radiolabel)?
Answer: 0.061 ± 0.002 pmol(10^7 cells)^−1s^−1

Question: And the “upregulation of uptake rate in NT3-KO relative to cas9” value [3]?
Answer: 4 fold

Question: And the Ki (TvagENT3 [5]; TvagENT3 in SUPKO, inhibition of 50 nM [^3H]-adenosine uptake)?
Answer: 2.7 ± 0.5 µM

Question: And the Ki (TvagENT3 [8])?
Answer: 3.3 ± 0.07 µM

Question: With `N=C(N)c1ccc(OCCCCCOc2ccc(C(=N)N)cc2)cc1` [pentamidine] as the molecule, how does the “EC50 (internal control)” value ([9]; NT1-KO compared with cas9) read?
Answer: unchanged

Question: Which “sensitivity of cas9 cells” value (L. mexicana cas9 cells [4]) does the source give for `COc1ccc(C[C@H](N)C(=O)N[C@H]2[C@@H](O)[C@H](n3cnc4c(N(C)C)ncnc43)O[C@@H]2CO)cc1` [puromycin] here?
Answer: confirmed

Question: Which results are given for `Cc1cn([C@H]2C[C@H](O)[C@@H](CO)O2)c(=O)[nH]c1=O` [thymidine]?
Answer: rate of uptake (L. mexicana cas9 cells [2]; 50 nM radiolabel): 0.0018 ± 0.0001 pmol(10^7 cells)^−1s^−1; upregulation of uptake rate in NT3-KO relative to cas9 [3]: 3.45 fold; uptake reduced in SUPKO compared to cas9 [6]: 95.7 ± 1.8%; rate of uptake ([6]; 50 nM radiolabel): 8.7 × 10^−5 ± 1.2 × 10^−5 pmol(10^7 cells)^−1s^−1

Question: Which “shift in tubercidin sensitivity” value ([9]; NT1-KO vs cas9, resazurin assay) does the source give for `Nc1ncnc2c1ccn2[C@@H]1O[C@H](CO)[C@@H](O)[C@H]1O` [tubercidin] here?
Answer: 60 fold

Question: And the “sensitivity of cas9 cells” value (L. mexicana cas9 cells [4])?
Answer: confirmed

Question: With `O=c1ccn([C@@H]2O[C@H](CO)[C@@H](O)[C@H]2O)c(=O)[nH]1` [uridine] as the molecule, how does the rate of uptake (LmexNT1.2; SUPKO expressing LmexNT1.2, 50 nM radiolabel) read?
Answer: 0.0076 ± 0.0009 pmol(10^7 cells)^−1s^−1

Question: What about the “uptake faster by cells expressing NT1.2 than NT1.1” value (LmexNT1.2; SUPKO transfectants, p = 0.0004) of the same molecule?
Answer: 6.3 fold

Question: What about the rate of uptake (L. mexicana cas9 cells [2]; 100 nM radiolabel) of the same molecule?
Answer: 0.10 ± 0.003 pmol(10^7 cells)^−1s^−1

Question: What about the rate of uptake (LmexNT1.1) of the same molecule?
Answer: 0.0012 ± 0.0001 pmol(10^7 cells)^−1s^−1

Question: And the Ki (L. major U1 transporter)?
Answer: 10.9 ± 3.2 µM

Question: And the “uptake reduced in SUPKO compared to cas9” value ([6]; listed as [^3H]-uridine)?
Answer: 88.3% and 98.6% and 97.5%

Question: And the rate of uptake ([6]; 50 nM radiolabel)?
Answer: not significantly different from zero

Question: And the rate of uptake ([6]; 100 nM radiolabel)?
Answer: 0.0014 ± 0.00009 pmol(10^7 cells)^−1s^−1

B1: TcrNB2 (Trypanosoma cruzi strain CL Brener) (protein)
chain: T1 sequence (Q4DHG0 1-440)
Question: With B1 as the molecule, how does the Km ([10]; other: TcrNB2 in NT3-KO, 100 nM [^3H]-adenine, n = 3) read?
Answer: 14.2 ± 2.6 µM

Question: And the Km ([10]; other: one of three independent repeats, incubation time 120 s)?
Answer: 14.99 µM
